Test systems include KM12; HCT-116; COLO 205; MDA-N; SF-539; MOLT-4; UACC-62; SK-OV-3; RXF 393; Malme-3M; SN12C; HT-29; SF-268; U-251; OVCAR-3; SW-620; CCRF-CEM; OVCAR-5; SNB-19; TK-10.
Assay in all cases: DTP human tumour cell line panel, 48 h

Experimental findings from ChEMBL document CHEMBL1201862, “PubChem BioAssay data set” (2004) are described below.

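Assay format: 96-well plates, 48-hour exposure. At the GI50, growth is halved.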 Active and inactive are the calls of the source. Rule as the data show it: active = GI50 up to about 1.1 µM and inactive = higher. Bounds are passed on as bounds.

Broadly, the GI50 is the concentration that inhibits growth by half. Take `COc1nncc2[nH]c(-c3ccccc3)cc12`: the GI50 with KM12 was > 100 µM (inactive); with HCT-116, 50.8 µM (inactive); with COLO 205 it was > 100 µM (inactive); in the test on MDA-N, 62.4 µM (inactive); with SF-539, > 100 µM (inactive); in the test with MOLT-4, 0.0652 µM (active). The GI50 in the test with UACC-62 is 42.3 µM (inactive); with SK-OV-3, > 100 µM (inactive); in the test with RXF 393, > 100 µM (inactive); in the test on Malme-3M, > 100 µM (inactive); in the test with SN12C, 40.9 µM (inactive); with HT-29, > 100 µM (inactive). For the same compound, the GI50 in the test on SF-268 is 65.8 µM (inactive); in the test on U-251 it was 49 µM (inactive); in the test with OVCAR-3, 83.2 µM (inactive); in the test with SW-620, > 100 µM (inactive); in the test on CCRF-CEM, 44.9 µM (inactive); in the test with OVCAR-5, > 100 µM (inactive). For the same compound, the GI50 in the test on SNB-19 was > 100 µM (inactive); in the test on TK-10, 53.1 µM (inactive).

Regarding `N=C(N)NCC[C@H](NC(=O)OCCCCCn1ccc(=O)[nH]c1=O)C(=O)O`, the GI50 in the test with KM12, in the test with HCT-116, in the test with COLO 205, in the test with MDA-N, in the test on SF-539 and in the test on MOLT-4 was > 100 µM (inactive) in each case. Also, the GI50 in the test on UACC-62, in the test with SK-OV-3, with RXF 393, in the test with Malme-3M, in the test with SN12C and with HT-29 was > 100 µM (inactive) each time. The GI50 in the test with SF-268, in the test with U-251, in the test on OVCAR-3, in the test with SW-620, with CCRF-CEM and in the test with OVCAR-5 was > 100 µM (inactive) throughout. Also, the GI50 in the test with SNB-19 and in the test on TK-10 was > 100 µM (inactive) throughout.

As to `CC(=O)N1c2ccccc2[C@H]2CCc3c([nH]c4ccccc34)[C@H]21`, the GI50 in the test with KM12 was 11.1 µM (inactive); in the test with HCT-116, 3.07 µM (inactive); in the test with COLO 205, 13.2 µM (inactive); with MDA-N, 18.5 µM (inactive); with SF-539, 11.8 µM (inactive); with MOLT-4, 11.2 µM (inactive). Also, the GI50 in the test on UACC-62 was 12.3 µM (inactive); in the test with SK-OV-3, 28.3 µM (inactive); in the test with RXF 393, 13.2 µM (inactive); in the test on Malme-3M it was 14.1 µM (inactive); in the test with SN12C, 13.7 µM (inactive); in the test with HT-29, 8.11 µM (inactive). Further, the GI50 was 15.4 µM (inactive) in the test on SF-268; 12.7 µM (inactive) with U-251; 15.4 µM (inactive) in the test on OVCAR-3; 12 µM (inactive) in the test with SW-620; 11.6 µM (inactive) with CCRF-CEM; 26.9 µM (inactive) in the test with OVCAR-5. In addition, the GI50 in the test with SNB-19 is 24.3 µM (inactive); with TK-10, 41.5 µM (inactive).

Regarding `c1ccc(C2(c3ccccc3)S/C(=C3/SC(c4ccccc4)(c4ccccc4)c4ccccc43)c3ccccc32)cc1`, the GI50 in the test on KM12, with HCT-116, in the test on COLO 205, with MDA-N, with SF-539 and in the test with MOLT-4 was > 100 µM (inactive) each time. Besides, the GI50 in the test with UACC-62, in the test with SK-OV-3, in the test on RXF 393, in the test with Malme-3M, with SN12C and in the test on HT-29 was > 100 µM (inactive) throughout. The GI50 in the test on SF-268, in the test with U-251, with OVCAR-3, in the test on SW-620, in the test with CCRF-CEM and in the test on OVCAR-5 was > 100 µM (inactive) each time. For the same compound, the GI50 in the test with SNB-19 and in the test with TK-10 was > 100 µM (inactive) each time.

Consider `Brc1ccc(CCNCCN2CCCCC2)cc1`, for which the GI50 in the test with KM12 is 16.6 µM (inactive); with HCT-116 it was 12.1 µM (inactive); in the test with COLO 205, 12.9 µM (inactive); in the test with MDA-N, 10.7 µM (inactive); in the test on SF-539, 10.9 µM (inactive); with MOLT-4, 62.1 µM (inactive). Also, the GI50 in the test on SK-OV-3 is 21.2 µM (inactive); with RXF 393 it was 33.6 µM (inactive); in the test with Malme-3M, 17.7 µM (inactive); with SN12C it was 25.9 µM (inactive); in the test with HT-29, 4 µM (inactive); with SF-268 it was 15.5 µM (inactive). Further, the GI50 in the test on U-251 was 18.4 µM (inactive); in the test on OVCAR-3, 15.4 µM (inactive); in the test on SW-620, 17 µM (inactive); in the test with CCRF-CEM, 14.2 µM (inactive); in the test with OVCAR-5, 17 µM (inactive); in the test with SNB-19, 17.3 µM (inactive). Also, in the test on TK-10, the GI50 is 15.5 µM (inactive).

`COc1nc(C)nc2c1ncn2Cc1ccccc1`: the GI50 in the test with KM12, in the test on HCT-116, in the test on COLO 205, with MDA-N, in the test on SF-539 and with UACC-62 was > 100 µM (inactive) throughout. Besides, the GI50 in the test on SK-OV-3 is > 100 µM (inactive); in the test with RXF 393, > 100 µM (inactive); with Malme-3M, > 100 µM (inactive); in the test on SN12C it was > 100 µM (inactive); in the test on HT-29, > 100 µM (inactive); in the test on SF-268, 57.3 µM (inactive). Also, the GI50 with U-251, in the test with OVCAR-3, with SW-620, in the test with CCRF-CEM, in the test on OVCAR-5 and with SNB-19 was > 100 µM (inactive) throughout. Also, in the test with TK-10, the GI50 is > 100 µM (inactive).

In the case of `COC(=O)CCN1CCN(CCO)CC1C` (configuration not stated), the GI50 in the test with KM12, with HCT-116, with COLO 205, in the test on MDA-N, in the test on SF-539 and with MOLT-4 was > 10 µM (inactive) each time. Further, the GI50 with UACC-62, in the test on SK-OV-3, in the test with RXF 393, in the test with Malme-3M, with SN12C and in the test on HT-29 was > 10 µM (inactive) in each case. Moreover, the GI50 in the test on SF-268, with U-251, in the test with OVCAR-3, in the test with SW-620, in the test with CCRF-CEM and with SNB-19 was > 10 µM (inactive) each time. The GI50 with TK-10 was > 10 µM (inactive).

With `COc1cccc(N2C(=O)C3c4[nH]c5ccccc5c4C4CCCC4C3C2=O)c1` (configuration not stated), the GI50 in the test with KM12 was > 10 µM (inactive); in the test on HCT-116, 2.87 µM (inactive); in the test with COLO 205, > 10 µM (inactive); with MDA-N, > 10 µM (inactive); in the test on SF-539, 7 µM (inactive); in the test on MOLT-4, > 10 µM (inactive). Besides, the GI50 in the test on UACC-62 is > 10 µM (inactive); in the test on SK-OV-3, 6.64 µM (inactive); in the test with RXF 393, 9.04 µM (inactive); in the test with Malme-3M, 2.78 µM (inactive); with SN12C, 3.01 µM (inactive); in the test on HT-29 it was 5.69 µM (inactive). Also, the GI50 is 9.66 µM (inactive) in the test with SF-268; 4.06 µM (inactive) with U-251; 2.36 µM (inactive) in the test on OVCAR-3; 7.98 µM (inactive) with SW-620; > 10 µM (inactive) with CCRF-CEM; > 10 µM (inactive) with OVCAR-5. Besides, the GI50 was 5.81 µM (inactive) in the test with SNB-19 and > 10 µM (inactive) in the test with TK-10.

Turning to `COc1ccc2nc3cc([N+](=O)[O-])ccc3c(NNc3ccc(Cl)cc3)c2c1`, the GI50 in the test with KM12 was 26.1 µM (inactive); in the test on HCT-116, 5.07 µM (inactive); in the test on COLO 205, 12.6 µM (inactive); in the test with MDA-N it was 31.6 µM (inactive); in the test with SF-539, 37.8 µM (inactive); in the test on MOLT-4 it was 26.1 µM (inactive). Also, the GI50 was 2.44 µM (inactive) in the test with UACC-62; 80 µM (inactive) with SK-OV-3; > 39.7 µM (inactive) in the test with RXF 393; 43.2 µM (inactive) with Malme-3M; 33.1 µM (inactive) in the test on SN12C; 15.2 µM (inactive) in the test with HT-29. The GI50 in the test with SF-268 is 43.5 µM (inactive); in the test on U-251, 21.7 µM (inactive); with OVCAR-3, 2.39 µM (inactive); in the test on SW-620 it was 12.1 µM (inactive); with CCRF-CEM, 22 µM (inactive); in the test with OVCAR-5 it was 2.31 µM (inactive). Further, the values for the GI50 with SNB-19 and with TK-10 were 75.7 µM (inactive) and 1.9 µM (inactive), respectively.

`COc1ccc(CCN2COc3ccc4ccc(=O)oc4c3C2)cc1OC`: the GI50 in the test with KM12 was > 100 µM (inactive); in the test with HCT-116, 66.5 µM (inactive); in the test on COLO 205 it was > 100 µM (inactive); with MDA-N, > 100 µM (inactive); with SF-539, > 100 µM (inactive); in the test with MOLT-4, > 100 µM (inactive). In addition, the GI50 in the test with UACC-62 was 50.2 µM (inactive); in the test with SK-OV-3, > 100 µM (inactive); in the test on RXF 393, 85.7 µM (inactive); with Malme-3M it was > 100 µM (inactive); with SN12C, > 100 µM (inactive); with HT-29, 78.5 µM (inactive). Moreover, the GI50 in the test on SF-268 is 60.4 µM (inactive); in the test on U-251, 88.9 µM (inactive); in the test on OVCAR-3 it was > 100 µM (inactive); in the test on SW-620, 24.2 µM (inactive); in the test on CCRF-CEM it was 23.7 µM (inactive); with OVCAR-5, > 100 µM (inactive). Besides, the GI50 in the test on SNB-19 and in the test on TK-10 was > 100 µM (inactive) throughout.
